This passage reports IC50 results from patent publication US20240300958A1, “COMPOUNDS AND THE USES AND PHARMACEUTICAL COMPOSITIONS THEREOF” (BEIJING YOUZHUJU NETWORK TECHNOLOGY CO. LTD., priority 2023, published 2024).

SMILES strings stand for the structures. Where only a bound is given, the exact number is not on record here.

DDR1, sequence (Q08345 other isoform, or with tags, fused parts or gaps isoform Q08345-2): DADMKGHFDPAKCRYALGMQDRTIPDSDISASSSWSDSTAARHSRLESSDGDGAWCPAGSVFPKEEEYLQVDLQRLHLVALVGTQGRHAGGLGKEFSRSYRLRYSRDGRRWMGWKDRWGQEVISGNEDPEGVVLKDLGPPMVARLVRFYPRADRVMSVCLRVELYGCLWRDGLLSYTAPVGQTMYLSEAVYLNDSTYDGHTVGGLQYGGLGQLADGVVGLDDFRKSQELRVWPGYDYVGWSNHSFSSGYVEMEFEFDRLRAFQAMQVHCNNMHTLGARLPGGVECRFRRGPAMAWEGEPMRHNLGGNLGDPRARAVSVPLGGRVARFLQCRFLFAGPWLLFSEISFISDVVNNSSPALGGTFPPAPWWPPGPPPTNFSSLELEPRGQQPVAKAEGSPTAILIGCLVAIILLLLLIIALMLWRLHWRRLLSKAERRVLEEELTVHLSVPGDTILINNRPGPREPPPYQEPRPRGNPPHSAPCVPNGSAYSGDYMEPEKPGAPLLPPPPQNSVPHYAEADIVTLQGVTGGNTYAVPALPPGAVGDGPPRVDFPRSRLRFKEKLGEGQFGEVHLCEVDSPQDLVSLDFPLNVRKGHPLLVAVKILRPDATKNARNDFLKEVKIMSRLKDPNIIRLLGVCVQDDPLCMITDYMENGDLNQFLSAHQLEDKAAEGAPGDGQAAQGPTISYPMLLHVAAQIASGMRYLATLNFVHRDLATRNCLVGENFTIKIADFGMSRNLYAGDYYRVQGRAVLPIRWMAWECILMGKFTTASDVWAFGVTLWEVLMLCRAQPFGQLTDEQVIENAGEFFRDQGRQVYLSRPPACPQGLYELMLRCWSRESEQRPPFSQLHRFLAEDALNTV

This assay concerns the target DDR1 (Homo sapiens (Human), UniProt Q08345). The experiment in a line: DDR1 kinase inhibition assay (FAM-labeled peptide), IC50. Format: biochemical. As to the method:
1× kinase base buffer (50 mM HEPES, pH 7.5, 0.0015% Brij-35) and a stop buffer (100 mM HEPES, pH 7.5, 0.015% Brij-35, 0.2% Coating Reagent #3, 50 mM EDTA) were prepared for testing kinases.
The compounds were diluted with 100% DMSO to 100 times the highest final inhibitor concentration required in the reaction. 100 μl of dilution of the compound was transferred to wells of a 96-well plate. For example, 100000 nM solution of the compound in DMSO was prepared in this step in case that an inhibitor concentration of 1000 nM is required. 100 μl of 100% DMSO was added to two empty wells of a 96-well plate for no compound control and no enzyme control. This plate was labeled as the source plate. A new 96-well plate with 5 μl of compound transferred from the source plate is used as an intermediate plate. 95 μl of 1× kinase buffer was added to each well of the intermediate plate. The compounds in the intermediate plate was mixed on a shaker for 10 minutes.
5 μl of sample in each well from the 96-well intermediate plate was transferred to the 384-well plate in duplicate. For example, well A1 of the 96-well plate was transferred to wells A2 and A1 of the 384-well plate, and well A2 of the 96-well plate was transferred to wells A3 and A4 of the 384-well plate, and so forth. 2.5× enzyme solution was prepared: 1× kinase basal buffer with added kinase. 2.5× peptide solution was prepared: 1× kinase basal buffer with added FAM-labeled peptide and ATP. To an assay plate already contained 5 μl of 10% dimethyl sulfoxide compound, 2.5× enzyme solution was transferred, and each well of the 384-well assay plate was added 10 μl of 2.5× enzyme solution. After incubation at room temperature for 10 minutes, 2.5× peptide solution was transferred to the assay plate. Each well of the 384-well assay plate was added 10 μl of 2.5× peptide solution. Kinase reaction and termination: incubation at 28° C. for a specified period followed by the addition of 25 μl stop buffer to stop the reaction. The data was read and collected.
`Cc1ccc(C(=O)Nc2ccccn2)cc1C#Cc1cnc2cc(C3CCCCC3)cnn12` [Compound C2]: the IC50 was < 500 nM.

`Cc1ccc(C(=O)Nc2ccccn2)cc1C#Cc1cnc2cc(C3C=CCCC3)cnn12` (stereo not drawn) [Compound C3]: the IC50 is < 500 nM. For the molecule `Cc1ccc(C(=O)Nc2ccccn2)cc1C#Cc1cnc2cc(C3CC=CCC3)cnn12` (stereo not drawn) [Compound C4], the IC50 is < 500 nM. On to `Cc1ccc(C(=O)Nc2ccccn2)cc1C#Cc1cnc2cc(C3CCCC3)cnn12` [Compound C5], for which the IC50 was < 500 nM.

Take `Cc1ccc(C(=O)Nc2ccccn2)cc1C#Cc1cnc2cc(C3=CCCC3)cnn12` [Compound C6]: the IC50 was < 500 nM. For the molecule `Cc1ccc(C(=O)Nc2ccccn2)cc1C#Cc1cnc2cc(C3C=CCC3)cnn12` (stereo not drawn) [Compound C7], the IC50 is < 500 nM. On to `Cc1ccc(C(=O)Nc2ccccn2)cc1C#Cc1cnc2cc(C3CC=CC3)cnn12` [Compound C8], for which the 50% inhibitory concentration (IC50) was < 500 nM. The value for `CCc1ccc(C(=O)Nc2ccccn2)cc1C#Cc1cnc2cc(C3=CCCCC3)cnn12` [Compound C9] was < 500 nM. The result for `CC(C)c1ccc(C(=O)Nc2ccccn2)cc1C#Cc1cnc2cc(C3=CCCCC3)cnn12` [Compound C10] reads < 500 nM.

On to `Cc1ccc(C(=O)Nc2ccccn2)cc1-c1cccc(-c2cnc3cc(C4=CCCCC4)cnn23)c1` [Compound C11], for which the IC50 is < 500 nM.

Regarding `Cc1cc(-c2cc(C(=O)Nc3ccccn3)ccc2C)cc(-c2cnc3cc(C4=CCCCC4)cnn23)c1` [Compound C12], the IC50 was < 500 nM. The result for `O=C(N[C@H]1CC[C@H](O)CC1)c1ccc2ccc(-c3ccc(NC4CCCCC4)cc3)cc2n1` [DC1, reference compound] reads > 1000 nM.
